Source: US3974140A, “Ureidoacetamido-penicillins” (Bayer Aktiengesellschaft, priority 1970, dated 1976)

Columns and labels:
Staph. aureus 133 [1] = test: MIC, liquid medium test tube series dilution test; type: cell-based, Staphylococcus aureus; settings: Staph. aureus 133, 24 hours, 37°C
Summary of the method: (§1)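 Broth tube serial dilution in complete nutrient medium; tubes read after 24 hours' incubation at 37°C. MIC taken as the concentration in the non-turbid tube of the dilution series, expressed in units/ml.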

Staph. aureus 1777 E = test: MIC, liquid medium test tube series dilution test; type: cell-based, Staphylococcus aureus; settings: 24 hours, 37°C
Summary of the method: as §1

Proteus vulg. 1017 = test: MIC, liquid medium test tube series dilution test; type: cell-based, Proteus vulgaris; settings: Proteus vulg. 1017, 24 hours, 37°C
Summary of the method: as §1

Proteus vulg. 3400 = test: MIC, liquid medium test tube series dilution test; type: cell-based, Proteus vulgaris; settings: Proteus vulg. 3400, 24 hours, 37°C
Summary of the method: as §1

[2] = tested on: Gram-negative and Gram-positive bacteria; test: Antibacterial effect, general statements; settings: MIC comparison
Psdm. aerug. Walter = test: MIC, liquid medium test tube series dilution test; type: cell-based, Pseudomonas aerug.; settings: 24 hours, 37°C
Summary of the method: as §1

Psdm. aerug. Bonn = test: MIC, liquid medium test tube series dilution test; type: cell-based, Pseudomonas aerug.; settings: 24 hours, 37°C
Summary of the method: as §1

[3] = tested on: Streptoc. faec. ATCC 9790; test: MIC, liquid medium test tube series dilution test; type: cell-based; settings: Strep. faec. (Enterococcus) ATCC 9790, 24 hours, 37°C
Summary of the method: as §1

E. coli A 261 = test: MIC, liquid medium test tube series dilution test; type: cell-based; settings: E. coli A 261, 24 hours, 37°C
Summary of the method: as §1

E. coli C 165 = test: MIC, liquid medium test tube series dilution test; type: cell-based; settings: E. coli C 165, 24 hours, 37°C
Summary of the method: as §1

Klebsiella 63 = test: MIC, liquid medium test tube series dilution test; type: cell-based; settings: Klebsiella 63, 24 hours, 37°C
Summary of the method: as §1

E. coli 183/58 = test: MIC, liquid medium test tube series dilution test; type: cell-based; settings: E. coli 183/58, 24 hours, 37°C
Summary of the method: as §1

E. coli 14 = test: MIC, liquid medium test tube series dilution test; type: cell-based; settings: E. coli 14, 24 hours, 37°C
Summary of the method: as §1

Klebsiella K 10 = test: MIC, liquid medium test tube series dilution test; type: cell-based; settings: Klebsiella K 10, 24 hours, 37°C
Summary of the method: as §1

[4] = Serum level after subcutaneous administration, measured from microbiological activity against Proteus vulgaris 1017; type: in vivo, white mice; settings: 150.000 units s.c.
Description: Serum level after subcutaneous ("s.c.") administration to white mice, in units/ml of serum, measured from the microbiological activity against Proteus vulgaris 1017 (ampicillin-resistant).

Acid stability = type: physicochemical; settings: pH 1 where stated
Staph. aureus 133 [5] = test: Surviving mice after intraperitoneal infection and subcutaneous therapy; type: in vivo, white mice, CF1 strain; settings: 2 × 200 units/mouse s.c.
Protocol: The experiments on animals (see Table 3) were carried out with white mice of the CF1 strain. The infection took place intraperitoneally with the particular bacterium indicated.

[6] = Acute toxicity (LD50), intravenous injection into the vein of the tail; type: in vivo; settings: mouse, in vivo, iv
Description: Acute toxicity (LD50) in white mice after
intravenous injection into the vein of the […]

CN(C(=O)N[C@@H](C(=O)N[C@@H]1C(=O)N2[C@@H]1SC(C)(C)[C@@H]2C(=O)O)c1ccccc1)C(=O)OC1CCCCC1 [Example 29, Sodium D(-)-α-(3-cyclohexyloxycarbonyl-3-methyl-ureido)-benzylpenicillin]
MIC (Staph. aureus 133 [1]): < 0.8 units/ml
MIC (Staph. aureus 133 [1]; listed as (A) of Example 29): < 0.7 units/ml
MIC (Staph. aureus 1777 E): 200 units/ml
MIC (Staph. aureus 1777 E; listed as (A) of Example 29): 200 units/ml
MIC (Proteus vulg. 1017): 12.5 units/ml
MIC (Proteus vulg. 1017; listed as (A) of Example 29): 12.5 units/ml
MIC (Proteus vulg. 3400): 12.5 units/ml
MIC (Proteus vulg. 3400; listed as (A) of Example 29): 12.5 units/ml
Biological activity compared between penicillin (A) and penicillin (B) [2]: identical within the limit of error
MIC (Psdm. aerug. Walter): 50 units/ml
MIC (Psdm. aerug. Bonn): 25 units/ml
MIC [3]: 100 units/ml
MIC (E. coli A 261): > 400 units/ml
MIC (E. coli A 261; listed as (A) of Example 29): 400 units/ml
MIC (E. coli C 165): 6.3 units/ml
MIC (E. coli C 165; listed as (A) of Example 29): 6.25 units/ml
MIC (Klebsiella 63): 100 units/ml
MIC (E. coli 183/58): 3.1 units/ml
MIC (E. coli 183/58; listed as (A) of Example 29): 3.12 units/ml
MIC (E. coli 14): 3.1 units/ml
MIC (Klebsiella K 10): 200 units/ml
MIC (Klebsiella K 10; listed as (A) of Example 29): 200 units/ml

CN(C(=O)N[C@@H](C(=O)N[C@@H]1C(=O)N2[C@@H]1SC(C)(C)[C@@H]2C(=O)O)c1ccccc1)C(=O)c1ccccc1 [Example 59, Sodium D(-)-α-(3-benzoyl-3-methyl-ureido)-benzylpenicillin]
MIC (Staph. aureus 133 [1]): < 0.78 units/ml
MIC (Staph. aureus 1777 E): 100 units/ml
MIC (Proteus vulg. 1017): 6.25 units/ml
MIC (Proteus vulg. 3400): 12.5 units/ml
MIC (Psdm. aerug. Walter): 25 units/ml
MIC (Psdm. aerug. Bonn): 12.5 units/ml
Serum level ([4]; 15 mins.): 25 units/ml of serum
Serum level ([4]; 30 mins.): 20 units/ml of serum
Serum level ([4]; 60 mins.): < 2 units/ml of serum
Stability to acid (Acid stability): remain microbiologically active at pH 1 for over one hour
MIC [3]: 100 units/ml
MIC (E. coli A 261): > 400 units/ml
MIC (E. coli C 165): 6.25 units/ml
MIC (Klebsiella 63): 50 units/ml
MIC (E. coli 183/58): 3.12 units/ml
MIC (E. coli 14): 1.56 units/ml
MIC (Klebsiella K 10): 25 units/ml
Number of surviving mice (Staph. aureus 133 [5]; 1 day): 90%
Number of surviving mice (Staph. aureus 133 [5]; 2 days): 70%
Number of surviving mice (Staph. aureus 133 [5]; 3 days): 70%
Number of surviving mice (Staph. aureus 133 [5]; 5 days): 70%

CC(=O)N(C)C(=O)N[C@@H](C(=O)N[C@@H]1C(=O)N2[C@@H]1SC(C)(C)[C@@H]2C(=O)O)c1ccccc1 [Example 66A, Sodium D(-)-α-(3-acetyl-3-methyl-ureido)-benzylpenicillin]
MIC (Staph. aureus 133 [1]): < 0.78 units/ml
MIC (Staph. aureus 1777 E): 50 units/ml
MIC (Proteus vulg. 1017): 50 units/ml
MIC (Proteus vulg. 3400): 100 units/ml
MIC (Psdm. aerug. Walter): 12.5 units/ml
MIC (Psdm. aerug. Bonn): 6.25 units/ml
LD50 [6]: > 4000 mg/kg
Stability to acid (Acid stability): remain microbiologically active at pH 1 for over one hour
MIC [3]: 25 units/ml
MIC (E. coli A 261): > 400 units/ml
MIC (E. coli C 165): 12.5 units/ml
MIC (Klebsiella 63): 50 units/ml
MIC (E. coli 183/58): 50 units/ml
MIC (E. coli 14): 3.12 units/ml
MIC (Klebsiella K 10): 50 units/ml
Number of surviving mice (Staph. aureus 133 [5]; 1 day): 100%
Number of surviving mice (Staph. aureus 133 [5]; 2 days): 90%
Number of surviving mice (Staph. aureus 133 [5]; 3 days): 70%
Number of surviving mice (Staph. aureus 133 [5]; 5 days): 70%

CN(C(=O)N[C@@H](C(=O)N[C@@H]1C(=O)N2[C@@H]1SC(C)(C)[C@@H]2C(=O)O)c1ccccc1)C(=O)OC1CCCCC1 [Example 67, Sodium D(-)-α-(3-cyclohexyloxycarbonyl-3-methyl-ureido)-benzylpenicillin]
MIC (Staph. aureus 133 [1]): < 0.78 units/ml
MIC (Staph. aureus 133 [1]; listed as (B) of Example 29): < 0.7 units/ml
MIC (Staph. aureus 1777 E): 400 units/ml
MIC (Proteus vulg. 1017): 6.25 units/ml
MIC (Proteus vulg. 1017; listed as (B) of Example 29): 6.25 units/ml
MIC (Proteus vulg. 3400): 6.25 units/ml
MIC (Proteus vulg. 3400; listed as (B) of Example 29): 6.25 units/ml
Biological activity compared between penicillin (A) and penicillin (B) [2]: identical within the limit of error
MIC (Psdm. aerug. Walter): 50 units/ml
MIC (Psdm. aerug. Bonn): 25 units/ml
MIC [3]: 100 units/ml
MIC (E. coli A 261): 400 units/ml
MIC (E. coli A 261; listed as (B) of Example 29): 400 units/ml
MIC (E. coli C 165): 6.25 units/ml
MIC (E. coli C 165; listed as (B) of Example 29): 6.25 units/ml
MIC (Klebsiella 63): 100 units/ml
MIC (E. coli 183/58): 1.56 units/ml
MIC (E. coli 183/58; listed as (B) of Example 29): 1.56 units/ml
MIC (E. coli 14): 1.56 units/ml
MIC (E. coli 14; listed as (B) of Example 29): 1.56 units/ml
MIC (Klebsiella K 10): 100 units/ml
MIC (Klebsiella K 10; listed as (B) of Example 29): 100 units/ml

C=CCOC(=O)N(C)C(=O)N[C@@H](C(=O)N[C@@H]1C(=O)N2[C@@H]1SC(C)(C)[C@@H]2C(=O)O)c1ccccc1 [Example 68, Sodium D(-)-α-(3-allyloxycarbonyl-3-methyl-ureido)-benzylpenicillin]
MIC (Staph. aureus 133 [1]): < 0.78 units/ml
MIC (Staph. aureus 133 [1]; listed as (B) of Example 30): 0.78 units/ml
MIC (Staph. aureus 1777 E): 50 units/ml
MIC (Proteus vulg. 1017): 12.5 units/ml
MIC (Proteus vulg. 1017; listed as (B) of Example 30): 12.5 units/ml
MIC (Proteus vulg. 3400): 25 units/ml
MIC (Proteus vulg. 3400; listed as (B) of Example 30): 25 units/ml
Biological activity compared between penicillin (A) and penicillin (B) [2]: identical within the limit of error
MIC (Psdm. aerug. Walter): 12.5 units/ml
MIC (Psdm. aerug. Walter; listed as (B) of Example 30): 12.5 units/ml
MIC (Psdm. aerug. Bonn): 12.5 units/ml
MIC (Psdm. aerug. Bonn; listed as (B) of Example 30): 12.5 units/ml
MIC [3]: 50 units/ml
MIC ([3]; listed as (B) of Example 30): 50 units/ml
MIC (E. coli A 261): > 400 units/ml
MIC (E. coli C 165): 12.5 units/ml
MIC (E. coli C 165; listed as (B) of Example 30): 12.5 units/ml
MIC (Klebsiella 63): 25 units/ml
MIC (Klebsiella 63; listed as (B) of Example 30): 25 units/ml
MIC (E. coli 183/58): 6.25 units/ml
MIC (E. coli 183/58; listed as (B) of Example 30): 6.25 units/ml
MIC (E. coli 14): 3.12 units/ml
MIC (E. coli 14; listed as (B) of Example 30): 3.12 units/ml
MIC (Klebsiella K 10): 50 units/ml
MIC (Klebsiella K 10; listed as (B) of Example 30): 50 units/ml
